Measurements as given in the Kinase Knowledgebase extract (Sharma et al. 2016).

target: PIK3CG (human) (UniProt P48736); experiment: Inhibition of PIK3CG Kinase Activity
Sequence (P48736 whole entry, looked up): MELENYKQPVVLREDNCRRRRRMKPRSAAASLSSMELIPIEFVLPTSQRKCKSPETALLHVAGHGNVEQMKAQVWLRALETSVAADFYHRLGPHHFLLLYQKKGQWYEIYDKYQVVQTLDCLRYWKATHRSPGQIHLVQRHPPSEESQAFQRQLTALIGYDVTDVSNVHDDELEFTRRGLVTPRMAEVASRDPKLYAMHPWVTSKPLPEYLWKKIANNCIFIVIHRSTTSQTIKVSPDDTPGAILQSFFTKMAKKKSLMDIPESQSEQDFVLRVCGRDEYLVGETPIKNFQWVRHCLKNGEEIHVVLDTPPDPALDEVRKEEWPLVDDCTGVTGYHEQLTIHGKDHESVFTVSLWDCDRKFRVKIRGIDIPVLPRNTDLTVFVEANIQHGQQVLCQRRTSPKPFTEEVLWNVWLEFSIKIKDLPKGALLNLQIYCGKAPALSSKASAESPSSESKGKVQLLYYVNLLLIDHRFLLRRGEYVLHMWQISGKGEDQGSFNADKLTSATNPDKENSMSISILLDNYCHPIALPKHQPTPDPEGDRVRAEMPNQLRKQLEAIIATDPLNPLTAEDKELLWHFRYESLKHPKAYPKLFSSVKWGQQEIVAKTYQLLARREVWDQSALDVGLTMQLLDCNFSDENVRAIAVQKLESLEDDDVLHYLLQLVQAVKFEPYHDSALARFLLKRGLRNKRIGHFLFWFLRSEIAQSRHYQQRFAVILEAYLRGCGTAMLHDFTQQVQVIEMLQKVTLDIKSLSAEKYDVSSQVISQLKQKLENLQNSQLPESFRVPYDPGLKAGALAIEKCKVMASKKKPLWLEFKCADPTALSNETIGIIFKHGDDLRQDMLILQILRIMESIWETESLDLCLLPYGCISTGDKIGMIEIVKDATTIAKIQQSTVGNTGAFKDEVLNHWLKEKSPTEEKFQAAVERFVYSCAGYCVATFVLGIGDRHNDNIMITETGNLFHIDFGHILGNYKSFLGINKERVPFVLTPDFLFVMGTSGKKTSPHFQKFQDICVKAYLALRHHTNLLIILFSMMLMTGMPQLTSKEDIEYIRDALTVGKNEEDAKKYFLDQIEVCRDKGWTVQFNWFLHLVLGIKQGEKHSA

Ki, < 100 nM:
COc1cc(-c2ccc3c(n2)CN(c2cccc(CC#N)c2)C3=O)cnc1OC
COc1cc(-c2ccc3c(c2)CN(c2cccc(CC#N)c2)C3=O)cnc1OC
Cc1cc(-c2cnc(C)c(C(=O)NC(C)C)c2)nc2c1C(=O)N(c1cnn(CC(F)(F)F)c1)C2(C)C
CCCNC(=O)c1cncc(-c2cc(C)c3c(n2)C(C)(C)N(c2cnn(CC(F)(F)F)c2)C3=O)c1
COc1ncc(-c2cc(C)c3c(n2)C(C)(C)N(c2cnn(CC(F)(F)F)c2)C3=O)cc1C(=O)N[C@H]1CCOC1
COc1cc(-c2cc(C)c3c(n2)CN(c2nc(C)cs2)C3=O)cnc1OC
Cc1cc(-c2cncc(OC(F)F)c2)nc2c1C(=O)N(c1cn[nH]c1)[C@@H]2C
COc1cc(-c2ccc3c(n2)[C@@H](C)N(c2cnn(CC#N)c2)C3=O)cnc1OC
COc1cncc(-c2cc(C)c3c(n2)CN(c2ccn([C@@H]4CCOC4)n2)C3=O)c1
COc1cc(-c2ccc3c(n2)CN(c2cnn(C(F)(F)C#N)c2)C3=O)cnc1OC
COc1cc(-c2cc(C)c3c(n2)CN(c2cnc(C(C)(C)O)c(F)c2)C3=O)cnc1OC
COc1cc(-c2cc(C)c3c(n2)CN(c2ccn([C@@H]4CCOC4)n2)C3=O)cnc1F
CCCn1nc(N2Cc3nc(-c4cnc(OC)c(OC)c4)cc(C)c3C2=O)cc1COC
COc1cc(-c2ccc3c(n2)CN(c2cnn(CC(F)(F)F)c2)C3=O)cnc1OC
COc1cc(-c2cc(C)c3c(n2)CN(c2cnn(CC#N)c2)C3=O)cnc1OC
Cc1cc(-c2cncc(OCC(F)F)c2)nc2c1C(=O)N(c1cnn(CC(F)(F)F)c1)C2C (stereo not drawn)
CCOc1cc(-c2cc(C)c3c(c2)CN(c2cnn(CC#N)c2)C3=O)cnc1OCC
COc1cncc(-c2cc(C)c3c(n2)C(C)(C)N(c2cnn(CC(F)F)c2)C3=O)c1
CCn1cc(N2Cc3nc(-c4cnc(OCCOC)c(OC)c4)cc(C)c3C2=O)cn1
COc1ncc(-c2cc(C)c3c(n2)C(C)(C)N(c2cnn(C(C)(C)C#N)c2)C3=O)cc1OCC(F)F
COc1cncc(-c2cc(C)c3c(n2)[C@@H](C)N(c2ccn(C)n2)C3=O)c1
Cc1cc(-c2cncc(NS(=O)(=O)N(C)C)c2)nc2c1C(=O)N(c1cnn(CC(F)(F)F)c1)C2(C)C
N#CCn1cc(N2Cc3cc(-c4cncc(S(N)(=O)=O)c4)ccc3C2=O)cn1
COc1cc(-c2cc(C)c3c(n2)C(C)(C)N(c2cnn(C[C@@H](C)O)c2)C3=O)cnc1OC
COc1cncc(-c2cc(C)c3c(n2)C2(CC2)N(c2cnn(CC(F)(F)F)c2)C3=O)c1
Cc1cc(-c2cncc(N)c2)nc2c1C(=O)N(c1cnn(CC(F)(F)F)c1)C2(C)C
CCc1ncc(-c2cc(C)c3c(n2)C(C)(C)N(c2cnn(CC(F)(F)F)c2)C3=O)cc1OC
CCc1cc(N2Cc3nc(-c4cnc(OC)c(OC)c4)cc(C)c3C2=O)nn1CC

Ki, 100 to 490 nM:
Cc1cc(-c2cncc(C(=O)NC3CC3)c2)nc2c1C(=O)N(c1cnn(CC(F)(F)F)c1)C2(C)C
CCCOCCOc1ncc(-c2cc(C)c3c(n2)CN(c2cnn(CC(F)(F)F)c2)C3=O)cc1OC
COc1cc(-c2ccc3c(n2)CN(c2cncc(C#CCO)c2)C3=O)cnc1OC
CCn1cc(N2Cc3cc(-c4ccc(OC)c(OC)n4)ccc3C2=O)cn1
COc1cc(-c2ccc3c(n2)CN(c2ccnc(N(C)CCCN(C)C)c2)C3=O)cnc1OC
COc1cc(-c2ccc3c(n2)C(C)N(c2ccc(N4CCC(O)C4)nc2)C3=O)cnc1OC (stereo not drawn)
COc1cc(-c2ccc3c(c2)CN(c2cncc(C#N)c2)C3=O)cnc1OC
COc1ncc(-c2ccc3c(n2)CN(c2cnn(CC#N)c2)C3=O)cn1
CCOc1ncc(-c2cc(C)c3c(n2)C2(CCCO2)N(c2ccn(CC)n2)C3=O)cc1OC (stereo not drawn)
CC#CCn1cc(N2Cc3cc(-c4cnc(OC)c(OC)c4)ccc3C2=O)cn1
